Measured values as given in patent US20260256792A1, “TREATMENT OF CHRONIC SPONTANEOUS URTICARIA BY ADMINISTERING (R)-2-[3-[4-AMINO-3-(2-FLUORO-4-PHENOXY-PHENYL)PYRAZOLO[3,4-D]PYRIMIDIN-1-YL]PIPERIDINE-1-CARBONYL]-4-METHYL-4-[4-(OXETAN-3-YL)PIPERAZIN-1-YL]PENT-2-ENENITRILE” (priority 2023, published 2026).

System: moderate-to-severe chronic spontaneous urticaria (CSU)
Assay: Phase 2 CSU study: itch severity score over 7 days (ISS7)
Type: in vivo, human
Conditions: for Change from Baseline in ISS7 at Week 12, LS Mean Diff vs. placebo / Change from Baseline in ISS7 at Week 12, Mean / Change from Baseline in ISS7 at Week 12, LS Mean: Omalizumab-naïve population; for ISS7 change from baseline at Week 12, LS Mean / ISS7 change from baseline at Week 12, LS Mean Diff vs. placebo: ANCOVA
Source text: The study comprises a 12 week, randomized, double-blind, placebo-controlled, multi-center, dose-ranging efficacy and safety phase, followed by a 40 week open label extension (OLE) phase (see FIG. 1). The study consists of three phases and an optional OLE phase. […] Clinically, CSU is characterized by the spontaneous and recurrent appearance of pruritic hives. The proposed primary endpoints were the UAS7 at Week 12 in EU and EU reference countries and the ISS7 in the US. Regardless of where a participant was from, all assessments were the same. The UAS7 score is a composite score containing both the HSS7 and the ISS7. This allowed a global assessment of the two key components of urticaria: hives and itch. […] The UAS is a validated PRO measure. […] The daily UAS scores range from 0 to 6 point/day. […] Patients were to complete the UAS using the e-diary. […] The following secondary endpoints were to be analyzed using the same approach as for the primary endpoint: • Change from baseline in UAS7 at Week 4 • Change from baseline in UAS7 at Week 12 (for US and US reference countries) • Change from baseline in ISS7 at Week 12 (except US and US reference countries) • Change from baseline in HSS7 at Week 12

[1] = 400 mg BID, Race All the Others
[2] = 400 mg BID, Region Eastern Europe
[3] = 400 mg BID, Region Latin America
[4] = 400 mg BID, Region Western Countries
[5] = 400 mg BID, omalizumab-naïve population
[6] = 400 mg BID, omalizumab-naïve population with outlier removed
[7] = 400 mg QPM, Age group (years) <44 (Median)
[8] = 400 mg QPM, Age group (years) <65
[9] = 400 mg QPM, Age group (years) ≥44 (Median)
[10] = 400 mg QPM, Baseline BHRA BHRA+
[11] = 400 mg QPM, Baseline BHRA BHRA−
[12] = 400 mg QPM, Baseline Eosinophils (10^9/L) <0.165 (Median)
[13] = 400 mg QPM, Baseline Eosinophils (10^9/L) <0.3
[14] = 400 mg QPM, Baseline Eosinophils (10^9/L) ≥0.165 (Median)
[15] = 400 mg QPM, Baseline Eosinophils (10^9/L) ≥0.3
[16] = 400 mg QPM, Baseline H1-antihistamines dose 1-fold
[17] = 400 mg QPM, Baseline H1-antihistamines dose 2 to 4-fold standard dose
[18] = 400 mg QPM, Baseline ISS7 score <13
[19] = 400 mg QPM, Baseline ISS7 score ≥13
[20] = 400 mg QPM, Baseline Total IgE (IU/mL) <100
[21] = 400 mg QPM, Baseline Total IgE (IU/mL) <300
[22] = 400 mg QPM, Baseline Total IgE (IU/mL) ≥100
[23] = 400 mg QPM, Baseline Total IgE (IU/mL) ≥300
[24] = 400 mg QPM, Baseline UAS7 score <28
[25] = 400 mg QPM, Baseline UAS7 score ≥28
[26] = 400 mg QPM, Duration of disease (years) 2-10

What does the source list for `CC(C)(C=C(C#N)C(=O)N1CCC[C@@H](n2nc(-c3ccc(Oc4ccccc4)cc3F)c3c(N)ncnc32)C1)N1CCN(C2COC2)CC1` [rilzabrutinib, (R)-2-[3-[4-amino-3-(2-fluoro-4-phenoxy-phenyl)pyrazolo[3,4-d]pyrimidin-1-yl]piperidine-1-carbonyl]-4-methyl-4-[4-(oxetan-3-yl)piperazin-1-yl]pent-2-enenitrile]?
Change from Baseline in ISS7 at Week 12, LS Mean Diff vs. placebo [1]: −3.52; Change from Baseline in ISS7 at Week 12, Mean [1]: −6.86; Change from Baseline in ISS7 at Week 12, LS Mean (400 mg BID, Race White): −7.91; Change from Baseline in ISS7 at Week 12, LS Mean Diff vs. placebo (400 mg BID, Race White): −1.90; Change from Baseline in ISS7 at Week 12, Mean (400 mg BID, Race White): −7.64; Change from Baseline in ISS7 at Week 12, LS Mean (400 mg BID, Region Asia): −6.99; Change from Baseline in ISS7 at Week 12, LS Mean Diff vs. placebo (400 mg BID, Region Asia): −3.54; Change from Baseline in ISS7 at Week 12, Mean (400 mg BID, Region Asia): −6.86; Change from Baseline in ISS7 at Week 12, LS Mean [2]: −4.38; Change from Baseline in ISS7 at Week 12, LS Mean Diff vs. placebo [2]: 8.28; Change from Baseline in ISS7 at Week 12, Mean [2]: −10.81; Change from Baseline in ISS7 at Week 12, LS Mean [3]: −4.75; Change from Baseline in ISS7 at Week 12, LS Mean Diff vs. placebo [3]: 1.84; Change from Baseline in ISS7 at Week 12, Mean [3]: −4.42; Change from Baseline in ISS7 at Week 12, LS Mean [4]: −10.12; Change from Baseline in ISS7 at Week 12, LS Mean Diff vs. placebo [4]: −5.57; Change from Baseline in ISS7 at Week 12, Mean [4]: 9.95; ISS7 at Week 12, Mean [5]: 8.09; ISS7 at Week 12, Median [5]: 7.00; ISS7 change from baseline at Week 12, Mean [5]: −7.40; ISS7 change from baseline at Week 12, Median [5]: −7.00; LS mean reduction in ISS7 (see Table 30) [5]: −5.06; ISS7 at Week 12, Mean [6]: 8.09; ISS7 at Week 12, Median [6]: 7.00; ISS7 change from baseline at Week 12, Mean [6]: −7.40; ISS7 change from baseline at Week 12, Median [6]: −7.00; ISS7 change from baseline at Week 12, LS Mean [6]: −7.76 points; ISS7 change from baseline at Week 12, LS Mean Diff vs. placebo [6]: −2.05; ISS7 change from baseline at Week 12, LS Mean [5]: −7.73 points; ISS7 change from baseline at Week 12, LS Mean Diff vs. placebo [5]: −1.96; Change from Baseline in ISS7 at Week 12, LS Mean [7]: −4.68; Change from Baseline in ISS7 at Week 12, LS Mean Diff vs. placebo [7]: −0.21; Change from Baseline in ISS7 at Week 12, Mean [7]: −5.45; Change from Baseline in ISS7 at Week 12, LS Mean [8]: −4.78; Change from Baseline in ISS7 at Week 12, LS Mean Diff vs. placebo [8]: 0.88; Change from Baseline in ISS7 at Week 12, Mean [8]: −5.68; Change from Baseline in ISS7 at Week 12, LS Mean [9]: −4.77; Change from Baseline in ISS7 at Week 12, LS Mean Diff vs. placebo [9]: 1.83; Change from Baseline in ISS7 at Week 12, Mean [9]: −5.95; Change from Baseline in ISS7 at Week 12, Mean (400 mg QPM, Age group (years) ≥65): −5.83; Change from Baseline in ISS7 at Week 12, LS Mean [10]: −8.50; Change from Baseline in ISS7 at Week 12, LS Mean Diff vs. placebo [10]: −3.12; Change from Baseline in ISS7 at Week 12, Mean [10]: −9.13; Change from Baseline in ISS7 at Week 12, LS Mean [11]: −4.66; Change from Baseline in ISS7 at Week 12, Mean [11]: −5.45; Change from Baseline in ISS7 at Week 12, LS Mean Diff vs. placebo (400 mg QPM, Baseline BMI (kg/m^2) ≥30): 0.17; Change from Baseline in ISS7 at Week 12, LS Mean [12]: −4.00; Change from Baseline in ISS7 at Week 12, LS Mean Diff vs. placebo [12]: 2.51; Change from Baseline in ISS7 at Week 12, Mean [12]: −4.93; Change from Baseline in ISS7 at Week 12, LS Mean [13]: −4.64; Change from Baseline in ISS7 at Week 12, LS Mean Diff vs. placebo [13]: 0.83; Change from Baseline in ISS7 at Week 12, Mean [13]: −5.66; Change from Baseline in ISS7 at Week 12, LS Mean [14]: −5.54; Change from Baseline in ISS7 at Week 12, LS Mean Diff vs. placebo [14]: −1.46; Change from Baseline in ISS7 at Week 12, Mean [14]: 6.55; Change from Baseline in ISS7 at Week 12, LS Mean [15]: −5.53; Change from Baseline in ISS7 at Week 12, LS Mean Diff vs. placebo [15]: −0.68; Change from Baseline in ISS7 at Week 12, Mean [15]: −5.81; Change from Baseline in ISS7 at Week 12, LS Mean [16]: −4.24; Change from Baseline in ISS7 at Week 12, LS Mean Diff vs. placebo [16]: 2.59; Change from Baseline in ISS7 at Week 12, Mean [16]: −5.09; Change from Baseline in ISS7 at Week 12, LS Mean [17]: −5.28; Change from Baseline in ISS7 at Week 12, LS Mean Diff vs. placebo [17]: −1.80; Change from Baseline in ISS7 at Week 12, Mean [17]: −6.37; Change from Baseline in ISS7 at Week 12, LS Mean [18]: −1.87; Change from Baseline in ISS7 at Week 12, LS Mean Diff vs. placebo [18]: 0.85; Change from Baseline in ISS7 at Week 12, Mean [18]: −4.42; Change from Baseline in ISS7 at Week 12, LS Mean [19]: −5.38; Change from Baseline in ISS7 at Week 12, LS Mean Diff vs. placebo [19]: 0.36; Change from Baseline in ISS7 at Week 12, Mean [19]: −5.78; Change from Baseline in ISS7 at Week 12, LS Mean [20]: −3.37; Change from Baseline in ISS7 at Week 12, LS Mean Diff vs. placebo [20]: 0.87; Change from Baseline in ISS7 at Week 12, Mean [20]: −4.48; Change from Baseline in ISS7 at Week 12, LS Mean [21]: −4.46; Change from Baseline in ISS7 at Week 12, LS Mean Diff vs. placebo [21]: 0.05; Change from Baseline in ISS7 at Week 12, Mean [21]: −5.41; Change from Baseline in ISS7 at Week 12, LS Mean [22]: −5.51; Change from Baseline in ISS7 at Week 12, LS Mean Diff vs. placebo [22]: 0.52; Change from Baseline in ISS7 at Week 12, Mean [22]: −6.28; Change from Baseline in ISS7 at Week 12, LS Mean [23]: −4.90; Change from Baseline in ISS7 at Week 12, LS Mean Diff vs. placebo [23]: 1.64; Change from Baseline in ISS7 at Week 12, Mean [23]: −6.11; Change from Baseline in ISS7 at Week 12, LS Mean [24]: −3.33; Change from Baseline in ISS7 at Week 12, LS Mean Diff vs. placebo [24]: −0.15; Change from Baseline in ISS7 at Week 12, Mean [24]: −5.32; Change from Baseline in ISS7 at Week 12, LS Mean [25]: −5.59; Change from Baseline in ISS7 at Week 12, LS Mean Diff vs. placebo [25]: 1.01; Change from Baseline in ISS7 at Week 12, Mean [25]: −5.78; Change from Baseline in ISS7 at Week 12, LS Mean [26]: −5.24; Change from Baseline in ISS7 at Week 12, LS Mean Diff vs. placebo [26]: 1.79; Change from Baseline in ISS7 at Week 12, Mean [26]: −6.43
